Results as given in ChEMBL document CHEMBL1795207, “Syntheses of cellotriose and cellotetraose analogues as transition state mimics for mechanistic studies of cellulases” (Bioorg Med Chem, 2011).

biological target: T1, Endoglucanase-5 (Mycothermus thermophilus, UniProt P43316); assay: Binding affinity to Humicola insolens NCE5 assessed as dissociation constant at pH 3.0 and at 59 degC by differential scanning calorimetry
T1 sequence (P43316 whole entry): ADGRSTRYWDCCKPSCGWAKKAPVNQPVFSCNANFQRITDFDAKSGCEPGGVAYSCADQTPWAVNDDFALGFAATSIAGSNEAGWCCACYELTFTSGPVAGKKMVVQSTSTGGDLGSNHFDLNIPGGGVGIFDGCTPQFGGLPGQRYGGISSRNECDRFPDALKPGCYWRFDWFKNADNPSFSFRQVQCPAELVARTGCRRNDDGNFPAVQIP

`CO[C@@H]1O[C@H](CO)[C@@H](S[C@@H]2C=C(CO)[C@@H](O[C@@H]3O[C@H](CO)[C@@H](O)[C@H](O)[C@H]3O)[C@H](O)[C@H]2O)[C@H](O)[C@H]1O` and `CO[C@H]1O[C@H](CO)[C@@H](S[C@@H]2C=C(CO)[C@@H](O[C@@H]3O[C@H](CO)[C@@H](O)[C@H](O)[C@H]3O)[C@H](O)[C@H]2O)[C@H](O)[C@H]1O` are within 1.5-fold of each other in Ki: 29 mM for the first, 25 mM for the second.

Compared with `CO[C@@H]1O[C@H](CO)[C@@H](O[C@@H]2O[C@H](CO)[C@@H](S[C@@H]3C=C(CO)[C@@H](O[C@@H]4O[C@H](CO)[C@@H](O)[C@H](O)[C@H]4O)[C@H](O)[C@H]3O)[C@H](O)[C@H]2O)[C@H](O)[C@H]1O`, `CO[C@@H]1O[C@H](CO)[C@@H](O[C@@H]2O[C@H](CO)[C@@H](S[C@@H]3O[C@H](CO)[C@@H](O[C@@H]4O[C@H](CO)[C@@H](O)[C@H](O)[C@H]4O)[C@H](O)[C@H]3O)[C@H](O)[C@H]2O)[C@H](O)[C@H]1O` is 2.4-fold higher in Ki: 1.6 mM for the first, 3.9 mM for the second. The first binds more tightly here.

`CO[C@H]1O[C@H](CO)[C@@H](S[C@@H]2O[C@H](CO)[C@@H](O[C@@H]3O[C@H](CO)[C@@H](O)[C@H](O)[C@H]3O)[C@H](O)[C@H]2O)[C@H](O)[C@H]1O` and `CO[C@@H]1O[C@H](CO)[C@@H](S[C@@H]2O[C@H](CO)[C@@H](O[C@@H]3O[C@H](CO)[C@@H](O)[C@H](O)[C@H]3O)[C@H](O)[C@H]2O)[C@H](O)[C@H]1O` cannot be ordered by Ki: greater than 30 mM for the first, greater than 30 mM for the second.

biological target: T1, Endoglucanase-5; assay: Binding affinity to Humicola insolens NCE5 assessed as dissociation constant at pH 4

`O=C[C@H](O)[C@@H](O)[C@H](O[C@@H]1O[C@H](CO)[C@@H](O[C@@H]2O[C@H](CO)[C@@H](O[C@@H]3O[C@H](CO)[C@@H](O[C@@H]4O[C@H](CO)[C@@H](O[C@@H]5O[C@H](CO)[C@@H](O)[C@H](O)[C@H]5O)[C@H](O)[C@H]4O)[C@H](O)[C@H]3O)[C@H](O)[C@H]2O)[C@H](O)[C@H]1O)[C@H](O)CO` [CELLOHEXOSE] gave a Ki of 0.42 mM.
